Results on 33 compounds are retold here after US9682059B2 (priority 2013, dated 2017).

Data set [1] has as its system PTZ-induced clonic seizure. The data set is described as follows: animal or person. To be noted: Mus musculus, ip; for responders at 20.4 mg/kg: read-out: Protection %; for ED50: read-out: PTZ test ED50. Format: in vivo, mice.
In another data set the test system is neurotoxicity (rotarod). The experiment in a line: Neurotoxicity (rotarod). Format: in vivo. The settings on record: mice, protective index. The protocol:
The measurement of neurotoxicity of the test compounds was conducted by the method of Dunham and Miya [Dunham, N. W. and Miya, T. S. 1957. A note on a simple apparatus for detecting neurological deficit in rats and mice. J. Am. Pharm. Assoc. (Baltimore) 46: 208-209]. In the method, motor abilities of the test animals can be determined by observing whether the test animals can walk without falling from a rotator, thereby determining the value of neurotoxicity of each compound. […] They were pre-trained on the rotarod (Rotarod; Columbus instrument, rota-max, USA) at 6 rpm for 5 min 24 hr prior to the test. The peak time was determined by administration test material's random dose for 0.5, 1, 2, 4 hour. […] The ratio of TD50 to ED50(TD50/ED50) is called as a protective index, and useful as a parameter for comparison of pharmaceutical efficacy and neurotoxicity.
For orientation: The rotarod test checks motor coordination on a turning rod.

Data set [2] has as its system Lithium-pilocarpine induced status epilepticus. The experiment in a line: animal or person. To be noted: for responders at 46 mg/kg: Rattus norvegicus, iv, read-out: Protection %; for Protection %: rat, in vivo. Format: in vivo, rat.
For data set [3], the system named is PTZ-induced clonic seizure. The experiment in a line: animal or person. The settings on record: Rattus norvegicus, ip. Format: in vivo, rats.
In data set [4] the test system is Lithium-pilocarpine induced status epilepticus. The experiment in a line: animal or person. Format: in vivo. To be noted: Rattus norvegicus, ip, 1.5 h, read-out: Protection %.
For data set [5], the system named is maximal electroshock seizure. The data set is described as follows: animal or person. Format: in vivo, mice.
In data set [6] the test system is benzodiazepine-resistant status epilepticus. The data set is described as follows: animal or person. Format: in vivo. The settings on record: Rattus norvegicus, ip, 10 min.
Data set [7] relates to lamotrigene-resistant amygdala kindled rat. The experiment in a line: animal or person. Format: in vivo. To be noted: ip.
The test system of the next data set is 6 Hz-induced seizure. The data set is described as follows: animal or person. Format: in vivo, mice. The settings on record: ip.

Where two headings read alike, the source gives them in different places.

Turning to `CC(C)[C@H](OC(N)=O)[C@@H](O)c1ccccc1Cl` [Compound 9, 1-(2-chlorophenyl)-(8)-1-hydroxy-3-methyl-butyl-(8)-2-carbamate], the responders at 20.4 mg/kg in data set [1] is 33.3%.
As for `C[C@H](OC(N)=O)[C@H](O)c1ccccc1Cl` [Compound 5, 1-(2-chlorophenyl)-(R)-1-hydroxypropyl-(S)-2-carbamate], the “PI(TD50/ED50 in MES)” value in the data set with neurotoxicity (rotarod) amounted to 3.3.
The ED50 is the dose at which the effect has come halfway, by size or by number of responders. On to `C[C@H](OC(N)=O)[C@@H](O)c1c(Cl)cccc1Cl` [Compound 37, 1-(2,6-dichlorophenyl)-(S)-1-hydroxypropyl-(S)-2-carbamate], for which the responders at 46 mg/kg in [2] amounted to 100%. For the same compound, in the data set with neurotoxicity (rotarod), the “PI(TD50/ED50 in MES)” value amounted to 5.1. Also, the ED50 in data set [1] was 25.7 mg/kg. Also, the responders at 30 mg/kg in data set [3] (read-out: Protection %) amounted to 50%.
In the case of `C[C@@H](OC(N)=O)[C@H](O)c1ccc(Cl)cc1Cl` [Compound 45, 1-(2,4-dichlorophenyl)-(R)-1-hydroxypropyl-(R)-2-carbamate], the responders at 46 mg/kg in [2] was found to be 33.3%. In data set [1], the responders at 20.4 mg/kg is 16.7%. The responders at 50 mg/kg in data set [3] (read-out: Protection %) was determined as 16.7%.
With `CC(C)[C@H](OC(N)=O)[C@@H](O)c1c(Cl)cccc1Cl` [Compound 42, 1-(2,6-dichlorophenyl)-(S)-1-hydroxy-3-methyl-butyl-(S)-2-carbamate], in data set [1], the responders at 20.4 mg/kg stood at 50%.
`CCCC[C@@H](OC(N)=O)[C@H](O)c1ccccc1Cl` [Compound 13, 1-(2-chlorophenyl)-(R)-1-hydroxyhexyl-(R)-2-carbamate]: the responders at 20.4 mg/kg in [1] is 50%.
Take `CNC(=O)O[C@H](C)[C@H](O)c1ccccc1Cl` (racemic) [Compound 29, 1-(2-chlorophenyl)-1-hydroxypropyl-2-N-methylcarbamate]: in data set [1], the responders at 20.4 mg/kg worked out at 33.3%.
For `CC(C)NC(=O)O[C@H](C)[C@H](O)c1ccccc1Cl` (racemic) [Compound 31, 1-(2-chlorophenyl)-1-hydroxypropyl-2-N-isopropylcarbamate], the responders at 46 mg/kg in data set [2] was 100%. Moreover, in data set [1], the responders at 20.4 mg/kg was found to be 83.3%.
On to `CC[C@H](OC(N)=O)[C@@H](O)c1ccccc1I` [Compound 67, 1-(2-iodophenyl)-(S)-1-hydroxybutyl-(S)-2-carbamate], for which the responders at 46 mg/kg in data set [2] came out at 100%. In addition, in data set [1], the ED50 came to 23.1 mg/kg. Also, the responders at 30 mg/kg in [3] (read-out: Protection %) turned out to be 33.3%.
Consider `CCCCC(OC(N)=O)C(O)c1ccccc1Cl` (racemic) [Compound 14, 1-(2-chlorophenyl)-1-hydroxyhexyl-2-carbamate], for which the responders at 20.4 mg/kg in data set [1] was found to be 16.7%.
Regarding `CCCNC(=O)O[C@@H](C)[C@@H](O)c1ccccc1Cl` [Compound 16, 1-(2-chlorophenyl)-(S)-1-hydroxypropyl-(S)-2-N-propylcarbamate], in [2], the responders at 46 mg/kg was determined as 100%. In addition, the responders at 30 mg/kg in [3] (read-out: Protection %) turned out to be 33.3%.
Regarding `CCC(OC(N)=O)C(O)c1ccccc1Cl` (racemic) [Compound 8, 1-(2-chlorophenyl)-1-hydroxybutyl-2-carbamate], the responders at 46 mg/kg in data set [2] is 50%. Moreover, the responders at 20.4 mg/kg in [1] turned out to be 50%.
For `C[C@H](OC(N)=O)[C@@H](O)c1cccc(Cl)c1Cl` [Compound 38, 1-(2,3-dichlorophenyl)-(S)-1-hydroxypropyl-(S)-2-carbamate], the responders at 46 mg/kg in data set [2] is 50%. Further, in [1], the responders at 20.4 mg/kg was 50%.
With `C[C@@H](OC(N)=O)[C@H](O)c1c(Cl)cccc1Cl` [Compound 46, 1-(2,6-dichlorophenyl)-(R)-1-hydroxypropyl-(R)-2-carbamate], the responders at 46 mg/kg in data set [2] stood at 50%. Besides, the responders at 20.4 mg/kg in data set [1] was determined as 50%.
`CCCC[C@H](OC(N)=O)[C@@H](O)c1ccc(Cl)cc1Cl` [Compound 43, 1-(2,4-dichlorophenyl)-(S)-1-hydroxyhexyl-(S)-2-carbamate]: the responders at 25 mg/kg in data set [3] (read-out: Protection %) came out at 33.3%.
For `C[C@H](OC(N)=O)[C@@H](O)c1ccccc1F` [Compound 63, 1-(2-fluorophenyl)-(S)-1-hydroxypropyl-(S)-2-carbamate], the responders at 46 mg/kg in data set [2] came to 50%. Moreover, the responders at 20.4 mg/kg in data set [1] was 50%.
On to `CCCNC(=O)O[C@@H](C)[C@@H](O)c1ccccc1Cl` [Compound 23, 1-(2-chlorophenyl)-(R)-1-hydroxypropyl-(R)-2-N-propylcarbamate], for which, in data set [1], the responders at 20.4 mg/kg stood at 50%.
As for `C[C@H](OC(N)=O)[C@@H](O)c1ccc(Cl)cc1Cl` [Compound 36, 1-(2,4-dichlorophenyl)-(S)-1-hydroxypropyl-(S)-2-carbamate], the responders at 20.4 mg/kg in [1] was found to be 33.3%.
Take `CNC(=O)O[C@@H](C)[C@@H](O)c1ccccc1Cl` [Compound 15, 1-(2-chlorophenyl)-(S)-1-hydroxypropyl-(S)-2-N-methylcarbamate]: the responders at 46 mg/kg in data set [2] came to 100%. Also, the responders at 25 mg/kg in data set [3] (read-out: Protection %) stood at 33.3%.
As to `CCCC[C@H](OC(N)=O)[C@@H](O)c1ccccc1Cl` [Compound 12, 1-(2-chlorophenyl)-(S)-1-hydroxyhexyl-(S)-2-carbamate], in [1], the responders at 20.4 mg/kg is 33.3%.
For `C[C@H](OC(=O)NC1CC1)[C@@H](O)c1ccccc1Cl` (single isomer, unassigned) [Compound 25], in [4], the responders at 60 mg/kg came out at 100%. Further, the Protection % entry in data set [2] is “^a46 (100%)”. Also, the responders at 20.4 mg/kg in [1] came out at 66.7%.
Take `CCCNC(=O)O[C@H](C)[C@H](O)c1ccccc1Cl` (racemic) [Compound 30, 1-(2-chlorophenyl)-1-hydroxypropyl-2-N-propylcarbamate]: the Protection % in data set [5] (mouse, in vivo) is listed as 200 ^a(25%). Besides, the responders at 20.4 mg/kg in [1] stood at 33.3%.
Take `C[C@H](OC(=O)NC1CC1)[C@@H](O)c1ccccc1Cl` [Compound 18, 1-(2-chlorophenyl)-(S)-1-hydroxypropyl-(R)-2-N-cyclopropylcarbamate]: the Protection % result in [2] is on record as “^a46 (66.7%)”. Moreover, the responders at 30 mg/kg in [3] (read-out: Protection %) was found to be 16.7%.
With `CC(OC(N)=O)C(O)c1ccccc1Cl` (racemic) [Compound 3, 1-(2-chlorophenyl)-1-hydroxypropyl-2-carbamate], in the data set with neurotoxicity (rotarod), the “PI(TD50/ED50 in MES)” value is 12.0.
As to `C[C@@H](OC(=O)NC1CC1)[C@H](O)c1ccccc1Cl` (racemic) [Compound 32, 1-(2-chlorophenyl)-1-hydroxypropyl-2-N-cyclopropylcarbamate], the responders at 46 mg/kg in data set [2] is 100%. The responders at 200 mg/kg in data set [5] (Mus musculus, po, read-out: Protection %) amounted to 100%. For the same compound, the responders at 20.4 mg/kg in data set [1] was found to be 16.7%.
Take `CC[C@H](OC(N)=O)[C@@H](O)c1ccccc1Cl` [Compound 6, 1-(2-chlorophenyl)-(S)-1-hydroxybutyl-(S)-2-carbamate]: the responders at 46 mg/kg in data set [2] was 100%. Also, in [1], the ED50 turned out to be 17.9 mg/kg. The responders at 30 mg/kg in [3] (read-out: Protection %) is 50%.
Take `CC[C@H](OC(N)=O)[C@@H](O)c1ccc(Cl)cc1Cl` [Compound 39, 1-(2,4-dichlorophenyl)-(S)-1-hydroxybutyl-(S)-2-carbamate]: the ED50 in data set [1] worked out at 24.3 mg/kg.
On to `C[C@H](OC(N)=O)[C@@H](O)c1ccccc1I` [Compound 65, 1-(2-iodophenyl)-(S)-1-hydroxypropyl-(S)-2-carbamate], for which the responders at 46 mg/kg in data set [2] was 100%. In addition, in [1], the responders at 20.4 mg/kg is 100%.
On to `CC[C@H](OC(N)=O)[C@@H](O)c1c(Cl)cccc1Cl` [Compound 40, 1-(2,6-dichlorophenyl)-(S)-1-hydroxybutyl-(S)-2-carbamate], for which the responders at 46 mg/kg in [2] amounted to 100%. The responders at 20.4 mg/kg in data set [1] stood at 33.3%.
Turning to `C[C@H](OC(N)=O)[C@@H](O)c1ccccc1Cl` [Compound 1, 1-(2-chlorophenyl)-(S)-1-hydroxypropyl-(S)-2-carbamate], the ED50 came out at 96.9 mg/kg in data set [6]; 17 mg/kg in data set [7] (Rattus norvegicus); 14.6 mg/kg with 6 Hz-induced seizure (Mus musculus); 13.66 mg/kg with 6 Hz-induced seizure (mouse, in vivo). Besides, the “Seizure Score” value in data set [7] (rat, in vivo) is on record as 2.0 ± 0.7(Control: 5.0 ± 0.0). Further, in the data set on neurotoxicity (rotarod), the “PI(TD50/ED50 in MES)” value came to 16.8.
In the case of `C[C@@H](OC(N)=O)[C@H](O)c1ccccc1Cl` [Compound 2, 1-(2-chlorophenyl)-(R)-1-hydroxypropyl-(R)-2-carbamate], the responders at 46 mg/kg in data set [2] stood at 50%. Moreover, the “PI(TD50/ED50 in MES)” value in the data set with neurotoxicity (rotarod) is recorded as 7.3. For the same compound, the ED50 in data set [3] (read-out: PTZ test ED50) was 51.9 mg/kg.
Consider `C[C@@H](OC(N)=O)[C@@H](O)c1ccccc1Cl` [Compound 4, 1-(2-chlorophenyl)-(S)-1-hydroxypropyl-(R)-2-carbamate], for which, in data set [2], the responders at 46 mg/kg turned out to be 100%. In data set [1], the ED50 was found to be 26.7 mg/kg. Further, in data set [3] (read-out: Protection %), the responders at 30 mg/kg stood at 50%.
Take `CCCC[C@H](OC(N)=O)[C@@H](O)c1c(Cl)cccc1Cl` [Compound 44, 1-(2,6-dichlorophenyl)-(S)-1-hydroxyhexyl-(S)-2-carbamate]: the responders at 20.4 mg/kg in data set [1] worked out at 33.3%.
